Measurements from article PMC4893612 (Scientific Reports, 2016).

What was measured:
[1] = test system: 26S proteasome and immunoproteasome; experiment: Proteasome and immunoproteasome proteolytic activity in OPM-2 cells; type: cell-based, human; settings: 0.5 μM, 3 hours
OPM-2-BZ^R = experiment: MTT antiproliferative assay, OPM-2-BZR; type: cell-based; settings: Homo sapiens, OPM-2-BZ^R (bortezomib resistant), 72 hours
Experimental: Cell viability was monitored by the MTT (3-(4,5-dimethylthiazol-2-yl)-2,5-diphenyltetrazolium bromide) assay. For the MTT assay, cells were suspended at 5 × 10^5 cells/ml, and 100 μl aliquots were dispended into 96-well microtiter plates and exposed to drugs as described using DMSO control. At the end of incubations, 10 μl of a stock solution of 5 mg/ml MTT (3-(4,5-dimethylthiazol-2-yl)-2,5-diphenyltetrazolium bromide), was added into each well, and the plates were incubated 4 hours at 37 °C. Formazan crystals were dissolved with 100 μl of 10% SDS/10 mM HCl solution overnight at 37 °C. Since MTT assays are affected by mitochondrial activity, and since OXPHOS is affected by VLX1570 (unpublished observation), we used the acid phosphatase method[49] to determine cell viability in some experiments. After washing twice with PBS, cells were lysed in 100 μl of 0.1 M sodium acetate, 0,1% Triton X-100, p-nitrophenylphosphate (Pierce Biotechnology Inc, Rockford, IL) and incubated for 90 min at 37 °C. At the end of the incubation, 10 μl NaOH was added to each well and A405 was determined.

26S proteasome = 26S proteasome (Homo sapiens, UniProt P54578+Q9Y5K5); experiment: SPR binding to 26S proteasomes, CM7 chip
From the text: A BIACORE T200 was used for characterization of the interaction between compounds and USP14, UCHL5 and 26S proteasome. The standard BIACORE protocols were used for NTA chip (Ni/His-tag immobilization) and CM7 chip for compound interaction studies with slight modification described below. The x6 his-tagged USP14 and UCHL5 proteins were coupled to a Series S NTA BIACORE sensor chip in the BIACORE T200 using the his-tags for adherence of the proteins to the surface and an amine coupling procedure for covalent attachment to the chip surface. NTA chip was cleaned using three 500 μM EDTA injections followed by an injection of 500 μM Ni^2+ and activation of the chip surface with EDC/NHS injection according to BIACORE standard methods. Each chip has four separate areas, which were handled separately during the immobilization procedure. Area 1 was used as blank reference surface, area 2–4 was coupled with investigated recombinant proteins or complexes. Proteins were diluted in running buffer (10 mM HEPES, 150 mM NaCl, 0,005% Tween 20) to typically 10 μg/ml before injection(1 mL) over the prepared surfaces. […] The immobilization procedure was followed by injections of compound concentration series of VLX1570. […] Rmax and KD were calculated using Langmuir binding isotherms as provided in the Biacore software.

MM cells = experiment: Immunoblotting of polyubiquitinated proteins in MM cells; type: cell-based, human; settings: 0.5 μM, 6 or 18 h
Experimental: (§1) Cell extract proteins were resolved by Tris-Acetate PAGE gels (Invitrogen, Carlsbad, CA) and transferred onto a polyvinylidene difluoride (PVDF) membrane for western blotting. For Ub-VS labeling, we lysed cell pellets from control or treated cells with buffer (50 mM HEPES pH 7.4, 250 mM sucrose, 10 mM MgCl2, 2 mM ATP, 1 mM DTT and 1%NP-40) on ice for 30 min and removed debris by centrifugation. We labeled 25 μg of protein with 1 μM Ub-VS for 30 min at 37 °C. We resolved samples by SDS-PAGE and performed immunoblotting. For HA-Ub-VS labeling, we pretreated purified 19S (5 nM) with DMSO or 2.5, 5, 10, 15 or 25μM 1570 for 10 min at room temperature, which followed with labeling with 1 μM HA-Ub-VS for 30 min at 37 °C and immunoblotting.

proteasome DUB activity = test system: proteasome DUB activity; parameters: method as in PMID 25854145; settings: in cells; read-out: in vivo IC50 for inhibition of proteasome DUB activity and induction of apoptosis; cited from earlier work
[2] = parameters: method as in PMID 25854145; settings: cited from earlier work
USP5 = target: T1, USP5 (Homo sapiens, UniProt P45974); experiment: SPR binding to USP5; settings: data not shown
T1 sequence (P45974 1-858): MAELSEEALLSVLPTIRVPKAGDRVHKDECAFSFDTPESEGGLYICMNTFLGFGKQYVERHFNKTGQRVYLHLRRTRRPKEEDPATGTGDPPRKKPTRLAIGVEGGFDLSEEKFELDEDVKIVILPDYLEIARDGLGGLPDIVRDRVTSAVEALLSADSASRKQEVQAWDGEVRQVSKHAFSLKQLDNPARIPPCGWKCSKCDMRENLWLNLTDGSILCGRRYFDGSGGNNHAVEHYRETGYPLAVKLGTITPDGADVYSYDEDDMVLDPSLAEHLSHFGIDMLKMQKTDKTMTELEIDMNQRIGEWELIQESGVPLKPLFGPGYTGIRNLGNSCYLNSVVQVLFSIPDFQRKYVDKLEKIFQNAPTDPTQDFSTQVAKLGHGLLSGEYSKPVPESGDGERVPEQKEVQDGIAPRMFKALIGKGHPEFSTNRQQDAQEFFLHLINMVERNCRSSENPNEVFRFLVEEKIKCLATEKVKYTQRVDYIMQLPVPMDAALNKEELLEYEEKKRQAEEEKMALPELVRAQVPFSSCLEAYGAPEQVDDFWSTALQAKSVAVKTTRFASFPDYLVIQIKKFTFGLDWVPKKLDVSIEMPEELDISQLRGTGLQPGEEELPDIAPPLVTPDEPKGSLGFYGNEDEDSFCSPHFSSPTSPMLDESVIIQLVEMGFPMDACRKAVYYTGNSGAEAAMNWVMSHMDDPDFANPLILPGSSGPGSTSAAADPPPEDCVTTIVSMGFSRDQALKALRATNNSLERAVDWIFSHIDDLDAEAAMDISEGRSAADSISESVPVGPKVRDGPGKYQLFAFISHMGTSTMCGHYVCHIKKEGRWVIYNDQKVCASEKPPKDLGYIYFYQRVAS

USP14 = USP14 (Homo sapiens, UniProt P54578); experiment: Ub-VS labeling of lysates of exposed OPM-2 cells, USP14; type: cell-based; parameters: endogenous in cells; host or cells: OPM-2 multiple myeloma cells; settings: 0.5 μM, 3 hours
Experimental: as §1

Chain of 26S proteasome (Q9Y5K5 whole entry): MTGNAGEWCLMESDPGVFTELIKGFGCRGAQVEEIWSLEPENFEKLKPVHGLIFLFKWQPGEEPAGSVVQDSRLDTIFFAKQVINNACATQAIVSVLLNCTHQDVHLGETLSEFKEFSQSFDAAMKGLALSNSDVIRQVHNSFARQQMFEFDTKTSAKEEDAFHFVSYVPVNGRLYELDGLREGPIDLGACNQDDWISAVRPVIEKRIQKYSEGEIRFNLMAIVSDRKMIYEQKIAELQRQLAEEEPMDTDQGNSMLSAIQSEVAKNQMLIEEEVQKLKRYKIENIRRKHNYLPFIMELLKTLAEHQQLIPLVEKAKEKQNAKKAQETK
Chain of 26S proteasome (P54578 whole entry): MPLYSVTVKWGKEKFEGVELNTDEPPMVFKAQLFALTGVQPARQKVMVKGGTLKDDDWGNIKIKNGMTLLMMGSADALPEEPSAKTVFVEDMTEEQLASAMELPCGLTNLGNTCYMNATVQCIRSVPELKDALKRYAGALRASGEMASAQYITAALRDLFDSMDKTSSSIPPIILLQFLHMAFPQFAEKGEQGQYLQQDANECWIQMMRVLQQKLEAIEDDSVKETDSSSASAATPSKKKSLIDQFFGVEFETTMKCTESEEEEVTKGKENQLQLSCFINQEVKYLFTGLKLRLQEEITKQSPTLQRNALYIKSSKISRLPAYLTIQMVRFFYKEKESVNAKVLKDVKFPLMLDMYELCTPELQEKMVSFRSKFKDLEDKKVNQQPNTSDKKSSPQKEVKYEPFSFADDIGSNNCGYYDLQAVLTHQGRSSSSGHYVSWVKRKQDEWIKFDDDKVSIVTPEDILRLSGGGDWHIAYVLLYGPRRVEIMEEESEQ
Chain of 26S proteasome (Q13200 whole entry partner): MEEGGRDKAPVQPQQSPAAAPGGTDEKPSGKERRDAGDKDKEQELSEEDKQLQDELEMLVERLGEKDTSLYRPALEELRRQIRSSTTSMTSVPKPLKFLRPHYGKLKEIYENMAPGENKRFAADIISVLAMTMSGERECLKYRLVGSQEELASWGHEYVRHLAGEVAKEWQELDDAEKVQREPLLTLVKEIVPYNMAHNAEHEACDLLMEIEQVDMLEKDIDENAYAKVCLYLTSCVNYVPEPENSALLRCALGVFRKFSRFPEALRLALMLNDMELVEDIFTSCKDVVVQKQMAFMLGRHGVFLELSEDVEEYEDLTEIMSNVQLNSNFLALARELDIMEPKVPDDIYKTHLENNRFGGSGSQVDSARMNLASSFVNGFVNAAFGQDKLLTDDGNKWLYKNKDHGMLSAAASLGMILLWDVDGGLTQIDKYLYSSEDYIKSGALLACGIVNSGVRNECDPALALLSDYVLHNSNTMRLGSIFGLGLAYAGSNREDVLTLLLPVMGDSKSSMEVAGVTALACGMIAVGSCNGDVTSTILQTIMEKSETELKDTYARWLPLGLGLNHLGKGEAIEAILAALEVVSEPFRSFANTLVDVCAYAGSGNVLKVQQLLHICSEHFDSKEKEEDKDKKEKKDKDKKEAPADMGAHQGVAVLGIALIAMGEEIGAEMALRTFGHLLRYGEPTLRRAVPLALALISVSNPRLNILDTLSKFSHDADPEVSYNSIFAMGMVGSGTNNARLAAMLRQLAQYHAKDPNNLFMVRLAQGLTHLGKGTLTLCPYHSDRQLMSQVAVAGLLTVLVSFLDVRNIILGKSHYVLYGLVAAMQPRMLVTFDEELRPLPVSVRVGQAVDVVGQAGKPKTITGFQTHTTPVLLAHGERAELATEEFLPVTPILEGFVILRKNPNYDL
Chain of USP14 (P54578 whole entry): as the sequence (P54578 whole entry) above

C=CC(=O)N1CC/C(=C\c2ccc(F)c([N+](=O)[O-])c2)C(=O)/C(=C/c2ccc(F)c([N+](=O)[O-])c2)C1 [VLX1570]
chymotryptic, tryptic and caspase-like activity of 26S proteasome and chymotryptic activity of immunoproteasome [1]: no change | IC50 (OPM-2-BZ^R): 191 ± 1 nM | VLX1570 binding Relative RU × 100 +/− S.D. (26S proteasome; immobilised 26S proteasome): 0.21 ± 0.09 | VLX1570 binding Relative RU × 100 +/− S.D. (26S proteasome; immobilised 26S proteasome pre-incubated with Ub-VS): 0.04 ± 0.01 | accumulation of polyubiquitinated proteins (MM cells): polyubiquitinated proteins accumulated | IC50 (proteasome DUB activity): < 1000 nM | solubility compared to b-AP15 [2]: improved solubility | saturable binding to USP5 (USP5): No saturable binding | inhibition of USP14 activity in exposed cells (USP14): Inhibition of USP14 activity could be demonstrated
